This note sets out measurements from patent US20050222227A1, “Oxazole-amine compounds for the treatment of neurodegenerative disorders” (Pfizer Inc, priority 2004, published 2005).

This experiment relates to gamma-secretase. As to the kind of experiment: gamma-secretase activity in a solubilized membrane preparation (cell-free assay). The experiment is classed as biochemical. As to conditions: according to McLendon et al., read-out: IC50 activity for inhibiting gamma-secretase. The text has this:
The activity of compounds of the Formula I of the present invention in inhibiting gamma-secretase activity may be determined in a solubilized membrane preparation generally according to the description provided in McLendon et al. Cell-free assays for γ-secretase activity, The FASEB Journal (Vol. 14, December 2000, pp. 2383-2386).

As for `C/C=C(\C)c1cnc(NC(=O)[C@H](CCC)NC2CCc3cc(F)cc(F)c3C2)o1` (stereo partly drawn) [Example 1, (S)-2-(5,7-difluoro-1,2,3,4-tetrahydronaphthalen-3-ylamino)-N-(5-((E)-but-2-en-2-yl)oxazol-2-yl)pentanamide], the half-maximal inhibitory concentration (IC50) (in general, the concentration that gives 50% inhibition) is less than 10 µM.
